Earlier results in paper PMC9187593 (Bioorganic chemistry, 2022).

Test system: ICR mice
Details: positive controls

| Structure (SMILES) | Effect on IP acid-stimulated stretching |
| --- | --- |
| COc1ccc2c3c1O[C@H]1C(=O)CC[C@@]4(O)[C@@H](C2)N(C)CC[C@]314 [oxycodone] | dose-dependent and significant decrease in IP acid-stimulated stretching |
| CC(C(=O)O)c1cccc(C(=O)c2ccccc2)c1 (centres unmarked) [ketoprofen] | dose-dependent and significant decrease in IP acid-stimulated stretching |
